Measured values taken from US20120077737A1, “HEPATITIS C INHIBITOR COMPOUNDS” (priority 2009, published 2012).
Where two headings read alike, the source gives them in different places.

How the values were obtained:
[1] = tested on: HCV genotype 1a subgenomic replicon with NS3 resistance mutation R155K; assay: HCV replicon RNA replication assay, R155K 1a; assay type: cell-based, HCV genotype 1a (strain H77), Huh-7 cells; details: Hepatitis C virus, read-out: R155K 1a Ec50 (nM)
[2] = tested on: HCV genotype 1b subgenomic replicon with NS3 resistance mutation D168V; assay: HCV replicon RNA replication assay, D168V 1b; assay type: cell-based, HCV genotype 1b (Con-1), Huh-7 cells; details: Hepatitis C virus, read-out: D168V 1b Ec50 (nM)
[3] = tested on: HCV genotype 1a subgenomic replicon with NS3 resistance mutation D168V; assay: HCV replicon RNA replication assay, D168V 1a; assay type: cell-based, HCV genotype 1a (strain H77), Huh-7 cells; details: Hepatitis C virus, read-out: D168V 1a Ec50 (nM)
[4] = tested on: HCVPV1a subgenomic replicon (wild type 1a); assay: HCV replicon RNA replication assay, wild type 1a; assay type: cell-based, HCV genotype 1a (strain H77), Huh-7 cells; details: Hepatitis C virus, read-out: WT 1a Ec50
[5] = tested on: HCVPV1b subgenomic replicon (wild type 1b); assay: HCV replicon RNA replication assay, wild type 1b; assay type: cell-based, HCV genotype 1b (Con-1), Huh-7 cells; details: Hepatitis C virus, read-out: WT 1b Ec50
[6] = Table 1, luciferase replicon, Huh-7, 72 h

Compound	EC50 [1] [nM]	EC50 [2] [nM]	EC50 [3] [nM]	EC50 ([4]; Table 2, clinical comparators, wildtype genotype 1a) [nM]	EC50 ([5]; Table 2, clinical comparators, wildtype genotype 1b) [nM]	EC50 ([1]; Huh-7, 72 h) [nM]	EC50 ([2]; Huh-7, 72 h) [nM]	EC50 ([3]; Huh-7, 72 h) [nM]	EC50 [4, 6] [nM]	EC50 [5, 6] [nM]
COc1ccc2c(O[C@@H]3C[C@H]4C(=O)N[C@@]5(C(=O)NS(=O)(=O)C6CC6)C[C@@H]5/C=C\CCCCN(C)C(=O)[C@@H]4C3)cc(-c3nc(C(C)C)cs3)nc2c1C [reference compound]	300	4400	3500	0.7	1.2	–	–	–	–	–
COc1ccc2c(O[C@@H]3C[C@H]4C(=O)N[C@]5(C(=O)NS(=O)(=O)C6(C)CC6)C[C@H]5/C=C\CCCCC[C@H](NC(=O)c5ccn(CC(=O)N(C)C)n5)C(=O)N4C3)cc(OC(C)C)nc2c1C [Compound 1017, (2R,6S,12Z,13aS,14aR,16aS)-6-[({1-[2-(dimethylamino)-2-oxoethyl]-1H-pyrazol-3-yl}carbonyl)amino]-2-{[7-methoxy-8-methyl-2-(propan-2-yloxy)quinolin-4-yl]oxy}-N-[(1-methylcyclopropyl)sulfonyl]-5,16-dioxo-1,2,3,6,7,8,9,10,11,13a,14,15,16,16a-tetradecahydrocyclopropa[e]pyrrolo[1,2-a][1,4]diazacyclopentadecine-14a(5H)-carboxamide]	–	–	–	–	–	1.2	1.5	2.7	1.1	1.1
COc1c(F)ccc2c(O[C@@H]3C[C@H]4C(=O)N[C@]5(C(=O)NS(=O)(=O)C6(C)CC6)C[C@H]5/C=C\CCCCC[C@H](NC(=O)c5ccn(C(C)C)n5)C(=O)N4C3)cc(OC(C)C)nc12 [Compound 1023, (2R,6S,12Z,13aS,14aR,16aS)-2-{[7-fluoro-8-methoxy-2-(propan-2-yloxy)quinolin-4-yl]oxy}-N-[(1-methylcyclopropyl)sulfonyl]-5,16-dioxo-6-({[1-(propan-2-yl)-1H-pyrazol-3-yl]carbonyl}amino)-1,2,3,6,7,8,9,10,11,13a,14,15,16,16a-tetradecahydrocyclopropa[e]pyrrolo[1,2-a][1,4]diazacyclopentadecine-14a(5H)-carboxamide]	–	–	–	–	–	3.1	0.52	0.83	0.37	0.4
CC(C)Oc1cc(O[C@@H]2C[C@H]3C(=O)N[C@]4(C(=O)NS(=O)(=O)C5(C)CC5)C[C@H]4/C=C\CCCCC[C@H](NC(=O)c4ccn(C)n4)C(=O)N3C2)c2ccc(Cl)c(Cl)c2n1 [Compound 1025, (2R,6S,12Z,13aS,14aR,16aS)-2-{[7,8-dichloro-2-(propan-2-yloxy)quinolin-4-yl]oxy}-N-[(1-methylcyclopropyl)sulfonyl]-6-{[(1-methyl-1H-pyrazol-3-yl)carbonyl]amino}-5,16-dioxo-1,2,3,6,7,8,9,10,11,13a,14,15,16,16a-tetradecahydrocyclopropa[e]pyrrolo[1,2-a][1,4]diazacyclopentadecine-14a(5H)-carboxamide]	–	–	–	–	–	9.3	0.11	3.8	0.22	0.17
COc1ccc2c(O[C@@H]3C[C@H]4C(=O)N[C@]5(C(=O)NS(=O)(=O)C6(C)CC6)C[C@H]5/C=C\CCCCC[C@H](NC(=O)c5ccn(CC(F)(F)F)n5)C(=O)N4C3)cc(OC(C)C)nc2c1C [Compound 1005, (2R,6S,12Z,13aS,14aR,16aS)-2-{[7-methoxy-8-methyl-2-(propan-2-yloxy)quinolin-4-yl]oxy}-N-[(1-methylcyclopropyl)sulfonyl]-5,16-dioxo-6-({[1-(2,2,2-trifluoroethyl)-1H-pyrazol-3-yl]carbonyl}amino)-1,2,3,6,7,8,9,10,11,13a,14,15,16,16a-tetradecahydrocyclopropa[e]pyrrolo[1,2-a][1,4]diazacyclopentadecine-14a(5H)-carboxamide]	–	–	–	–	–	0.85	0.17	1.4	0.18	0.16
COc1ccc2c(O[C@@H]3C[C@H]4C(=O)N[C@]5(C(=O)NS(=O)(=O)C6(C)CC6)C[C@H]5/C=C\CCCCC[C@H](NC(=O)c5ccn(CC(F)F)n5)C(=O)N4C3)cc(OC(C)C)nc2c1C [Compound 1001, (2R,6S,12Z,13aS,14aR,16aS)-6-({[1-(2,2-difluoroethyl)-1H-pyrazol-3-yl]carbonyl}amino)-2-{[7-methoxy-8-methyl-2-(propan-2-yloxy)quinolin-4-yl]oxy}-N-[(1-methylcyclopropyl)sulfonyl]-5,16-dioxo-1,2,3,6,7,8,9,10,11,13a,14,15,16,16a-tetradecahydrocyclopropa[e]pyrrolo[1,2-a][1,4]diazacyclopentadecine-14a(5H)-carboxamide]	–	–	–	–	–	0.96	0.1	0.78	0.22	0.17
COc1c(F)ccc2c(O[C@@H]3C[C@H]4C(=O)N[C@]5(C(=O)NS(=O)(=O)C6(C)CC6)C[C@H]5/C=C\CCCCC[C@H](NC(=O)c5ccc(C)s5)C(=O)N4C3)cc(OC(C)C)nc12 [Compound 1028, (2R,6S,12Z,13aS,14aR,16aS)-2-{[7-fluoro-8-methoxy-2-(propan-2-yloxy)quinolin-4-yl]oxy}-N-[(1-methylcyclopropyl)sulfonyl]-6-{[(5-methylthiophen-2-yl)carbonyl]amino}-5,16-dioxo-1,2,3,6,7,8,9,10,11,13a,14,15,16,16a-tetradecahydrocyclopropa[e]pyrrolo[1,2-a][1,4]diazacyclopentadecine-14a(5H)-carboxamide]	–	–	–	–	–	6.5	0.52	5.5	1.1	0.69
COc1c(F)ccc2c(O[C@@H]3C[C@H]4C(=O)N[C@]5(C(=O)NS(=O)(=O)C6(C)CC6)C[C@H]5/C=C\CCCCC[C@H](NC(=O)c5ccn(CCF)n5)C(=O)N4C3)cc(OC(C)C)nc12 [Compound 1021, (2R,6S,12Z,13aS,14aR,16aS)-6-({[1-(2-fluoroethyl)-1H-pyrazol-3-yl]carbonyl}amino)-2-{[7-fluoro-8-methoxy-2-(propan-2-yloxy)quinolin-4-yl]oxy}-N-[(1-methylcyclopropyl)sulfonyl]-5,16-dioxo-1,2,3,6,7,8,9,10,11,13a,14,15,16,16a-tetradecahydrocyclopropa[e]pyrrolo[1,2-a][1,4]diazacyclopentadecine-14a(5H)-carboxamide]	–	–	–	–	–	1.9	0.53	0.93	0.34	0.48
COc1ccc2c(O[C@@H]3C[C@H]4C(=O)N[C@]5(C(=O)NS(=O)(=O)C6(C)CC6)C[C@H]5/C=C\CCCCC[C@H](NC(=O)c5cnn(CC(F)F)n5)C(=O)N4C3)cc(OC(C)C)nc2c1C [Compound 1010, (2R,6S,12Z,13aS,14aR,16aS)-6-({[2-(2,2-difluoroethyl)-2H-1,2,3-triazol-4-yl]carbonyl}amino)-2-{[7-methoxy-8-methyl-2-(propan-2-yloxy)quinolin-4-yl]oxy}-N-[(1-methylcyclopropyl)sulfonyl]-5,16-dioxo-1,2,3,6,7,8,9,10,11,13a,14,15,16,16a-tetradecahydrocyclopropa[e]pyrrolo[1,2-a][1,4]diazacyclopentadecine-14a(5H)-carboxamide]	–	–	–	–	–	4.6	0.26	5.6	0.3	0.37
